Experimental data published in PubChem BioAssay (NCI).
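Compound exposure: 48 hours, 5 concentrations, 96-well plates. GI50: concentration for 50% inhibition of growth. TGI denotes the concentration required for complete inhibition of growth.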

How the values were obtained:
Test in all cases: NCI tumour cell line growth inhibition, 48 h
MDA-N = tested on: MDA-N
DMS 114 small cell lung = tested on: DMS 114 small cell lung
M19-MEL melanoma = tested on: M19-MEL melanoma
P388/ADR leukemia = tested on: P388/ADR leukemia
SN12K1 renal = tested on: SN12K1 renal
BT-549 breast = tested on: BT-549 breast

SMILES | TGI (MDA-N) [µM] | TGI (DMS 114 small cell lung) [µM] | TGI (M19-MEL melanoma) [µM] | TGI (P388/ADR leukemia) [µM] | TGI (SN12K1 renal) [µM] | GI50 (BT-549 breast) [µM] | TGI (BT-549 breast) [µM]
CC(C)c1ccccc1SCc1cc(=O)cc(CSc2ccccc2C(C)C)o1 | 44.9 |  |  |  |  |  | 
C=C1C(=O)OC2CC(C)C3C4OC4C(O)C3(C)C(O)C12 (stereo not drawn) |  | 45.9 | 69.7 | 49.3 | 70.8 |  | 
CC12CCC(CC1)C(C)(C)O2 |  | 123 | 64.5 | 42.6 | 110 |  | 
O=C1/C(=C/c2ccc(O)cc2)COc2ccc(O)c(O)c21 |  |  |  |  |  | 1.97 | 7.69
CSc1nc(N)c2c(-c3ccccc3)c3c(nc2n1)CCCC3 | > 100 |  |  |  |  |  | > 100
